Like-named read-outs stand apart in the source and are kept apart here.
Assays:
[1] = biological target: T1, CYP450 enzyme isoform 3A4 (Homo sapiens, UniProt P08684); assay: CYP enzyme single-point inhibition assay, 3A4; assay type: in vitro ADME; settings: human liver microsome, single-point method
T1 construct: single-point method using human liver microsome incubation system; from tissue; host or cells: human liver microsomes
Protocol: Test Example 7. CYP Enzyme Single-Point Inhibition Assay
The inhibition of the compounds on CYP450 enzyme isoformwas rapidly predicted by single-point method using human liver microsome incubation system.
2.5 mM NADPH: 4.165 mg of NADPH (reduced nicotinamide adenine dinucleotide phosphate) was weighed, followed by addition of 100 mM phosphate buffer to 2 mL. 0.25 mg/mL microsome solution: 4 mL of 100 mM phosphate buffer was added to 50 μL of 20 mg/mL microsome solution and mixed well.
The test compound of the Example was weighed, diluted to 10 mM with DMSO and then to 100 μM with 100 mM phosphate buffer.
1. 40 μL of liver microsome, 10 μL of substrate and 10 μL of the test compound were added to a 96-well plate and pre-incubated for 3 min.
2. 40 μL of NADPH was added.
3. 300 μL of acetonitrile stop solution containing internal standard was added at 20 min.
4. The sample was centrifuged and injected.

[2] = biological target: T2, hERG potassium channel (Homo sapiens, UniProt Q12809); assay: hERG potassium channel inhibition activity assay (Qpatch, CHO-hERG cells); assay type: cell-based; settings: Qpatch whole-cell, highest test concentration 40 μM
T2 construct: expressed in transfected cells; host or cells: CHO
T2 sequence (Q12809 whole entry): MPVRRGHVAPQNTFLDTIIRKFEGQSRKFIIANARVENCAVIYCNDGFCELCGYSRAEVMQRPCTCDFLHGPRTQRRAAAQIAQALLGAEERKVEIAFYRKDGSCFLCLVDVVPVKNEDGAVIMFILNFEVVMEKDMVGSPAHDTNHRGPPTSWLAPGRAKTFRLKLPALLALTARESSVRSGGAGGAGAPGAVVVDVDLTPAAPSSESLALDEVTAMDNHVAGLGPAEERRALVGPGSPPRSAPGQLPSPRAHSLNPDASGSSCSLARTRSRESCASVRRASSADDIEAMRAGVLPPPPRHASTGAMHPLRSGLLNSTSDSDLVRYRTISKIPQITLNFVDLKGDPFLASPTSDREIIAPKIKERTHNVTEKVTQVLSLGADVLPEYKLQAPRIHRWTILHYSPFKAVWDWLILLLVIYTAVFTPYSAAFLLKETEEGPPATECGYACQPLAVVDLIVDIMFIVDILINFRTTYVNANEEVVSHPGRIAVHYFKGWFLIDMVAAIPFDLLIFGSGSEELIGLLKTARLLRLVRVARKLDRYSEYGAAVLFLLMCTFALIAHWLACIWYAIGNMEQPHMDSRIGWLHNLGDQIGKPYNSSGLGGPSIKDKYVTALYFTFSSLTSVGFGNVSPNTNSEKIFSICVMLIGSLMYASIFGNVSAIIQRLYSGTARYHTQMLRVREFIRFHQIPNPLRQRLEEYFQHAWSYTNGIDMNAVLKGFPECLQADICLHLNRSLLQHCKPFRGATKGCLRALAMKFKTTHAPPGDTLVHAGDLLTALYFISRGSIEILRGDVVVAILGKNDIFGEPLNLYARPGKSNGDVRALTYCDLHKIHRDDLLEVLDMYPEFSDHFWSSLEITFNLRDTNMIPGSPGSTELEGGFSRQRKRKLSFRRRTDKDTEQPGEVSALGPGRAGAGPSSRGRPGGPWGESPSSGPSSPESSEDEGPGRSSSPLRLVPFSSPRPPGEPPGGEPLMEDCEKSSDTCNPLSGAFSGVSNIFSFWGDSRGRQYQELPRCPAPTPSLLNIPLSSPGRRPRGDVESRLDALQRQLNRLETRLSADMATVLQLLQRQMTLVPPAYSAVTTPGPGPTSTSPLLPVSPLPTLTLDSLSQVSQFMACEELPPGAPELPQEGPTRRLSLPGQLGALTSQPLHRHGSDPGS
Protocol: Test Example 8. hERG Potassium Channel Inhibition Activity Assay
7.1.1 CHO-hERG cells were cultured in a 175 cm^2 culture flask. After the cell density reached 60-80%, the culture solution was removed. The cells were washed with 7 mL of PBS once, and dissociated with 3 mL of Detachin.
7.1.2 After completion of dissociation, the cells were neutralized with 7 mL of culture solution. The solution was centrifuged, and the supernate was removed. The cells were resuspended in 5 mL of culture solution. The cell indensity is ensured as 2˜5×10^6/mL.
Single cell sealing impedance and formation of whole-cell mode were automatically performed by Qpatch instrument. After obtaining the whole-cell recording mode, the cell was clamped at −80 mV. The cell first underwent pre-voltage of −50 mV for 50 msec, then underwent depolarization stimulation at +40 mV for 5 sec, and then underwent repolarization at −50 mV for 5 sec, and then the voltage returned to −80 mV The cell underwent the stimulation at the voltage every 15 sec. The data were recorded for 2 min, then extracellular fluid was administrated, and then the data were recorded for 5 min. Then, the administration process begun. The concentration of the test compound started from the lowest concentration, and each test concentration was administrated for 2.5 min. At least three cells (n≥3) were tested for each concentration.
4.1 20 mM mother liquor of the compound was diluted with extracellular fluid. […] of extracellular fluid was added to 5 μL of 20 mM mother liquor of the compound to obtain a concentration of 40 μM (500-fold dilution). The solution was subjected to a 3-fold serial dilution with extracellular fluid containing 0.2% DMSO to obtain a required final concentration.
This concentration of DMSO had no effect on hERG potassium channel.
The experimental data was analyzed by XLFit software.

[3] = Metabolic stability in liver microsome (dog); assay type: in vitro ADME; settings: dog liver microsome 0.5 mg/mL, compound 1 μM; for half-life at 1 μM: liver microsomes, NADPH/UDPGA
Protocol: Test Example 5. Assay of Metabolic Stability in Liver Microsome
The objective of the experiment is to determine the stability of the compounds of the Examples in liver microsome of mouse, rat, dog and human.
Formulation of the working solution of the compound: The stock solution of the compound was added to phosphate buffer, and the final concentration was 20 μM.
Liver microsome was diluted with 100 mM phosphate buffer to obtain a final concentration of 0.625 mg/mL.
NADPH (reduced nicotinamide adenine dinucleotide phosphate) and UDPGA (uridine diphosphate glucuronic acid) were weighed respectively, followed by addition of 100 mM phosphate buffer. The final concentrations were 20 mM.
1 mg of Alamethicin was weighed, to which 200 μL of DMSO was added to obtain a 5 mg/mL solution. The solution was diluted with phosphate buffer to obtain a final concentration of 50 μg/mL.
2.5 Formulation of the reaction stop solution Stop solution: Cold acetonitrile containing 100 ng/mL labetalol hydrochloride and 400 ng/mL tolbutamide as internal standards.
400 μL of the prepared liver microsome, 25 μL of the working solution of the compound and 25 μL of Alamethicin were added to a 96-well plate successively, which was then pre-incubated at 37° C. for 10 min. 50 μL of the prepared NADPH/UDPGA was added to initiate the reaction, and the plate was incubated at 37° C. The total volume of the reaction system was 500 μL. The final contents of the components were as follows: […]

T1 sequence (P08684 whole entry, canonical isoform): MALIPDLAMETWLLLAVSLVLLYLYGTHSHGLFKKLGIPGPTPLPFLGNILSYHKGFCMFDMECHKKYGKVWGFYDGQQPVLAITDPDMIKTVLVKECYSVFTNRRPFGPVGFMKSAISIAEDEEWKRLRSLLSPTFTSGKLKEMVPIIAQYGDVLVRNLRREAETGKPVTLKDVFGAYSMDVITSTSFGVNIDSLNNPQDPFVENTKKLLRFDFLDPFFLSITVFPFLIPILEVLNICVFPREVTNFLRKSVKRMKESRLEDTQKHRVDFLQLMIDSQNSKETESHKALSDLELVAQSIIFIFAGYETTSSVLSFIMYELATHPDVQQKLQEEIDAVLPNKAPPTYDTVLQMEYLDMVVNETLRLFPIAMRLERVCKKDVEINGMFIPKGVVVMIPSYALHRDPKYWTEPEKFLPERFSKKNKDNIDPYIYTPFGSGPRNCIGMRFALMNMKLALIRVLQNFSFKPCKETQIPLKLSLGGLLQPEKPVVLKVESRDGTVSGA

O=C(Cn1c(=O)c2ccc(C(F)(F)F)nc2n2nccc12)Nc1ccc(F)cn1 [Example 78, N-(5-Fluoropyridin-2-yl)-2-(5-oxo-8-(trifluoromethyl)pyrazolo[1,5-a]pyrido[3,2-e]pyrimidin-4(5H)-yl)acetamide]
IC50 ([1]; 3A4-M, read-out: 3A4-M IC50): > 100 µM | IC50 ([1]; 3A4-T, read-out: 3A4-T IC50): > 100 µM | IC50 [2]: > 10 µM | Remaining (%, 60 min) [3]: 93.4% | half-life at 1 μM [3]: 11.2 h

O=C(Cn1c(=O)c2ccc(C(F)(F)F)nc2n2nc(Br)cc12)Nc1ccc(F)cn1 [Example 61-A, 2-(2-bromo-5-oxo-8-(trifluoromethyl)pyrazolo[1,5-a]pyrido[3,2-e]pyrimidin-4(5H)-yl)-N-(5-fluoropyridin-2-yl)acetamide]
IC50 ([1]; 3A4-M, read-out: 3A4-M IC50): > 100 µM | IC50 ([1]; 3A4-T, read-out: 3A4-T IC50): > 100 µM | IC50 [2]: > 10 µM | Remaining (%, 60 min) [3]: 96.0% | half-life at 1 μM [3]: 15.6 h

CCc1cc2n(CC(=O)Nc3ccc(F)cn3)c(=O)c3ccc(C(F)(F)F)nc3n2n1 [Example 34, 2-(2-Ethyl-5-oxo-8-(trifluoromethyl)pyrazolo[1,5-a]pyrido[3,2-e]pyrimidin-4(5H)-yl)-N-(5-fluoropyridin-2-yl)acetamide]
IC50 ([1]; 3A4-M, read-out: 3A4-M IC50): > 100 µM | IC50 ([1]; 3A4-T, read-out: 3A4-T IC50): > 100 µM

N#Cc1cnn2c3nc(C(F)(F)F)ccc3c(=O)n(CC(=O)Nc3ccc(F)cn3)c12 [Example 80, 2-(3-Cyano-5-oxo-8-(trifluoromethyl)pyrazolo[1,5-a]pyrido[3,2-e]pyrimidin-4(5H)-yl)-N-(5-fluoropyridin-2-yl)acetamide]
IC50 [2]: > 20 µM

N#Cc1cc2n(CC(=O)Nc3ccc(F)cn3)c(=O)c3ccc(C(F)(F)F)nc3n2n1 [Example 68, 2-(2-Cyano-5-oxo-8-(trifluoromethyl)pyrazolo[1,5-a]pyrido[3,2-e]pyrimidin-4(5H)-yl)-N-(5-fluoropyridin-2-yl)acetamide]
IC50 ([1]; 3A4-M, read-out: 3A4-M IC50): > 100 µM | IC50 ([1]; 3A4-T, read-out: 3A4-T IC50): > 100 µM | IC50 [2]: 18.4 µM | Remaining (%, 60 min) [3]: 99.0% | half-life at 1 μM [3]: 22.5 h

— US20230118497A1, “PYRAZOLE-CONTAINING POLYCYCLIC DERIVATIVE INHIBITOR, PREPARATION METHOD THEREFOR AND APPLICATION THEREOF” (Shanghai Hansoh Biomedical Co., Ltd., priority 2019, published 2023)
